# Data: BindingDB's records for doi:10.7270/Q2W957MN (The Scripps Research Institute Molecular Screening Center, 2010)
# Molecular target: T1, Trans-activator protein BZLF1 (Epstein-Barr virus (strain B95-8), UniProt P03206)
# T1 sequence (P03206 whole entry): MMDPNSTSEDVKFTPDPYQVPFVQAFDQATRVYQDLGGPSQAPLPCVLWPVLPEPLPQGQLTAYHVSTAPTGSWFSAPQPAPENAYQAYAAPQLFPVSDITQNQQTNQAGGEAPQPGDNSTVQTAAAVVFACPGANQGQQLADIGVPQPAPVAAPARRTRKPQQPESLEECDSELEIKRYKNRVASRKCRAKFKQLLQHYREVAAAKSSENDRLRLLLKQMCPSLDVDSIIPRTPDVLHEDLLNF
# Test: EBV ZTA inhibitors, dose response, counter-screen for EBNA-1 inhibitor project, biochemical, fluorescence polarization, Epstein-Barr virus, 1536-well (AID 2377)
row,SMILES,IC50
1,O=C(Nc1nc2cc3c(cc2s1)OCCO3)c1ccc(-n2c(O)ccc2O)cc1,15.1 µM
2,COc1ccc(-n2cc(O)c(-c3nc4ccccc4s3)c2N)cc1,> 111 µM
3,COc1cc(-c2nc3n(n2)C(c2cccc(OC)c2OC)C2C(=O)CCCC2=N3)cc(OC)c1OC (configuration not stated),> 111 µM
4,"C=c1cc2[nH]c(=O)c(=Cc3cn(C)c4ccccc34)c(=N)n2o1 [(6Z)-7-imino-2-methyl-6-[(1-methylindol-3-yl)methylidene]-[1,2]oxazolo[2,3-a]pyrimidin-5-one]",> 111 µM
5,COc1cccc(-n2cc(O)c(-c3nc4ccccc4c(=O)[nH]3)c2N)c1 [MLS000075886],> 111 µM
6,O=[N+]([O-])c1cccc(CN=Nc2nc(NCc3ccccc3)nc(N3CCOCC3)n2)c1 [SMR000174986],> 111 µM
7,CN1C(=O)/C(=N\NC(=O)c2cc(-c3cccs3)nc3ccccc23)c2ccccc21 [SMR000242891],> 111 µM
